{"source": "paper PMC9032385", "about": "“A2A Adenosine Receptor Antagonists: Are Triazolotriazine and Purine Scaffolds Interchangeable?” (Molecules, 2022)", "key": {"PD patients": {"system": "PD patients", "set-up": "method as in PMID 26523919", "details": "two phase III trials, adjunct to levodopa in PD patients; cited from earlier work"}, "human recombinant A1AR": {"target": "T1, human recombinant A1AR (Homo sapiens, UniProt P30542)", "T1 construct": "expressed in transfected cells; membrane preparation", "T1 sequence (P30542 1-326)": "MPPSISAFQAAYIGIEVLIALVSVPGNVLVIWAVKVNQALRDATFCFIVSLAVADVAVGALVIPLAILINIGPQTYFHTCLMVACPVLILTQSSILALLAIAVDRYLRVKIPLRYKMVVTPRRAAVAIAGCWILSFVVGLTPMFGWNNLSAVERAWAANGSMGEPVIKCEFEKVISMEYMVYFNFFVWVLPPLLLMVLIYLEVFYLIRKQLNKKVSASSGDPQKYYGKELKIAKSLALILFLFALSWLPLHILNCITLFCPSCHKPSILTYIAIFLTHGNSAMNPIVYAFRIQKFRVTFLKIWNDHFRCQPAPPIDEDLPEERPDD", "assay": "Radioligand binding at human A1AR ([3H]CCPA displacement, CHO cell membranes)", "details": "displacement of [3H]CCPA, n = 3–5, means ± standard errors", "experimental": "(§1) The affinities of the newly synthesized compounds 7–13 and 17–21 were determined in binding studies at human recombinant A1, A2A, and A3 ARs, stably transfected in Chinese hamster ovary (CHO) cells, using [^3H]CCPA (2-chloro-N^6-cyclopentylAdo), [^3H]NECA (5′-N-ethylcarboxamidoAdo), and [^3H]HEMADO (2-hexynyl-N^6-methylAdo) as respective radioligands. Most of the compounds were also evaluated at A2BARs in a functional study using the GloSensor cAMP assay. The results are reported in Table 1 as Ki values in nM (± standard errors). In the case of A2BARs, Ki-values were calculated from IC50-values determined by the inhibition of NECA-stimulated adenylyl cyclase activity.\n(§2) Cell culture: The Chinese hamster ovary cells (CHO) stably transfected with the desired ARs were grown in DMEM/F12 medium containing 10% FBS (fetal bovine serum), 100 U/mL penicillin, 100 µg/mL streptomycin, 2.5 μg/mL amphotericin B, 1 mM sodium pyruvate, 0.1 mg/mL genetecina (G418), and incubated at 37 °C in a gaseous mixture of 5% CO2: […].\n(§3) Preparation of membranes: Cell membranes for binding assays were prepared mechanically detaching the cells from the petri and suspending them in a cold hypotonic buffer (5 mM Tris/HCl, 2 mM EDTA, pH 7.4). The cell suspension was homogenized (Ultra-Turrax, 2 × 15 s at maximum speed) and the homogenate centrifuged for 10 min (4 °C) to 1000× g. The supernatant was subsequently centrifuged for 30 min (4 °C) at 100,000× g and the pellet containing the membrane proteins was re-suspended in a specific buffer for each receptor subtype (A1: 50 mM Tris/HCl, pH 7.4; A2A: 50 mM Tris/HCl, 10 mM MgCl2, pH 7.4; A3: 50 mM Tris/HCl, 10 mM MgCl2, 1 mM EDTA, pH 8.25). The amount of the protein suspension was determined according to the […] using the BCA Protein Assay Kit (Pierce), frozen in liquid nitrogen, and stored at −80 °C.\n(§4) Binding assays: The dissociation constants of the radioligand (KD) were calculated through saturation assays, while the dissociation constants of the compounds under study (Ki) were determined by competition experiments. All binding data were calculated by nonlinear regression curves using the software GraphPad Prism 5 (GraphPad Software, San Diego, CA, USA). The increasing concentrations of the radioligand saturation binding ([^3H]-CCPA for the A1 receptor subtype, [^3H]-NECA for the A2A receptor subtype, and [^3H]-HEMADO for the A3 receptor) subtype were incubated in a total volume of 250 μL containing 0.2 U/mL of Ado deaminase (ADA) and 12 micrograms of membrane proteins in the specific buffer. In competition experiments for the A1 receptor subtype, each compound was added at increasing concentrations, to the well containing 1 nM of [^3H]-CCPA, to a final volume of 200 μL. The samples were left to incubate for 3 h at room temperature, filtered in a filter 96-well plate (UniFilter GF/C, Perkin-Elmer Life and Analytical Science, Boston, MA) using the FilterMate Cell Harvester (Perkin-Elmer), and washed 3 times with cold distilled water. After drying the filter plate at 40 °C for 30′, they 20 μL of scintillating liquid (Microscint-20, Perkin-Elmer) was added to each well, and then the radioactivity was quantized with the MicroBeta2 Plate Counter (Perkin-Elmer). The conditions for binding experiments at A2A and A3 receptor subtypes were essentially the same as for the A1AR using [^3H]-NECA (N-ethylcarboxyamideAdo) at a concentration of 10 nM and [^3H]-HEMADO (2-(1-hexyne)-N^6-methylAdo) at a concentration of 1 nM as radioligands, respectively. The samples were incubated with 12 micrograms of protein for 3 h at room temperature and filtered as described above.\n(§5) The non-specific binding was determined in the presence of 1 mM theophylline for the A1AR, or 100 µM R-PIA (N^6-(1-methyl-2-phenylethyl)Ado) for the A2A and A3 receptors."}, "human recombinant A2AAR": {"target": "T2, human recombinant A2AAR (Homo sapiens, UniProt P29274)", "T2 construct": "expressed in transfected cells; membrane preparation", "T2 sequence (P29274 whole entry)": "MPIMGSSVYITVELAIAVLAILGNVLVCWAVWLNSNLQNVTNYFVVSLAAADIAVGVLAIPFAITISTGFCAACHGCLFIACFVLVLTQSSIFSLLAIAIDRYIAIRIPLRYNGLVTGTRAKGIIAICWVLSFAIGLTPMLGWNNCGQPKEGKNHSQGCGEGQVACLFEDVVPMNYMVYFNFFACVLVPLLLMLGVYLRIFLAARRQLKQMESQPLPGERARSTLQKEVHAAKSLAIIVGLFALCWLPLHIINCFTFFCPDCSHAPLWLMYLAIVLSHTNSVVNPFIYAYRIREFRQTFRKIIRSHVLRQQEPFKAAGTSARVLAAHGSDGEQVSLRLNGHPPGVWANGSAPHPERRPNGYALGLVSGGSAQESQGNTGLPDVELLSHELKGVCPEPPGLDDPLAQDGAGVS", "assay": "Radioligand binding at human A2AAR ([3H]NECA displacement, CHO cell membranes)", "details": "displacement of [3H]NECA, CHO membranes, n = 3–5, means ± standard errors", "experimental": "Most of the compounds were also evaluated at A2BARs in a functional study using the GloSensor cAMP assay. […] In the case of A2BARs, Ki-values were calculated from IC50-values determined by the inhibition of NECA-stimulated adenylyl cyclase activity.\nPreparation of membranes: Cell membranes for binding assays were prepared mechanically detaching the cells from the petri and suspending them in a cold hypotonic buffer (5 mM Tris/HCl, 2 mM EDTA, pH 7.4). The cell suspension was homogenized (Ultra-Turrax, 2 × 15 s at maximum speed) and the homogenate centrifuged for 10 min (4 °C) to 1000× g. […] The amount of the protein suspension was determined according to the […] using the BCA Protein Assay Kit (Pierce), frozen in liquid nitrogen, and stored at −80 °C.\nas §4, §5"}, "A2BAR": {"target": "T3, A2BAR (Homo sapiens, UniProt P29275)", "T3 construct": "expressed in transfected cells", "T3 sequence (P29275 1-332)": "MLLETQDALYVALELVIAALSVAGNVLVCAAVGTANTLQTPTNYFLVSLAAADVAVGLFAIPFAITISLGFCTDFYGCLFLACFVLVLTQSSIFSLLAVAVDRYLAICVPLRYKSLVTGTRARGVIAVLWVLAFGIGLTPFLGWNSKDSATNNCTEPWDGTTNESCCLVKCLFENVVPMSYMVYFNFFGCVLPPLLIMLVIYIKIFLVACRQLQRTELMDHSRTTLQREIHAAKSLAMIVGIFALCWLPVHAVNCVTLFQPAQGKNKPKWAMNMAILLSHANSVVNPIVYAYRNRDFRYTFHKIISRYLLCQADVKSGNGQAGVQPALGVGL", "assay": "Functional study at A2BAR (GloSensor cAMP assay; inhibition of NECA-stimulated adenylyl cyclase activity)", "format": "cell-based", "details": "Ki calculated from IC50 of inhibition of NECA-stimulated adenylyl cyclase activity, CHO cells", "experimental": "as §1"}, "human recombinant A3AR": {"target": "T4, human recombinant A3AR (Homo sapiens, UniProt P0DMS8)", "T4 construct": "expressed in transfected cells; membrane preparation", "T4 sequence (P0DMS8 1-318)": "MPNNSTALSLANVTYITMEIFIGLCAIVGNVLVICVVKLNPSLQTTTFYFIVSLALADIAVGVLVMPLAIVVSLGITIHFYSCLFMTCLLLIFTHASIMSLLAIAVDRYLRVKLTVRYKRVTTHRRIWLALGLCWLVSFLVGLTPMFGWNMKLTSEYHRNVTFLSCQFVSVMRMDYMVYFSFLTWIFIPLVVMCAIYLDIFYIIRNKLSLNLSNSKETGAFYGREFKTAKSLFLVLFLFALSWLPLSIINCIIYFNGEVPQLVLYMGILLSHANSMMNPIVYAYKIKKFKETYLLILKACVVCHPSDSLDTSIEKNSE", "assay": "Radioligand binding at human A3AR ([3H]HEMADO displacement, CHO cell membranes)", "details": "displacement of [3H]HEMADO, n = 3–5, means ± standard errors", "experimental": "as §1, §2, §3, §4, §5"}}, "data": [{"smiles": "COCCOc1ccc(N2CCN(CCn3ncc4c3nc(N)n3nc(-c5ccco5)nc43)CC2)cc1", "note": "[Preladenant]", "values": [{"measurement": "efficacy versus placebo", "setting": "PD patients", "value": "efficacy was not significantly higher than the placebo"}]}, {"smiles": "CCn1cnc2c(N)nc(NCCc3ccc(OC)cc3)nc21", "note": "[compound 7, 9-Ethyl-N^2-(4-methoxyphenethyl)-9H-purine-2,6-diamine]", "values": [{"measurement": "Ki", "setting": "human recombinant A1AR", "value": 5.84, "unit": "µM"}, {"measurement": "Ki", "setting": "human recombinant A2AAR", "value": 1.46, "unit": "µM"}, {"measurement": "Ki", "setting": "A2BAR", "value": "> 30", "unit": "µM"}, {"measurement": "Ki", "setting": "human recombinant A3AR", "value": 23.6, "unit": "µM"}]}, {"smiles": "CCn1c(Br)nc2c(N)nc(NCCc3ccc(OC)cc3)nc21", "note": "[compound 8, 8-Bromo-9-ethyl-N^2-(4-methoxyphenethyl)-9H-purine-2,6-diamine]", "values": [{"measurement": "Ki", "setting": "human recombinant A1AR", "value": 0.545, "unit": "µM"}, {"measurement": "Ki", "setting": "human recombinant A2AAR", "value": 0.034, "unit": "µM"}, {"measurement": "Ki", "setting": "A2BAR", "value": 4.26, "unit": "µM"}, {"measurement": "Ki", "setting": "human recombinant A3AR", "value": 4.03, "unit": "µM"}]}, {"smiles": "CCn1c(Br)nc2c(N)nc(NCCc3ccc(O)cc3)nc21", "note": "[compound 9, 4-(2-((6-Amino-9-ethyl-8-bromo-9H-purin-2-yl)amino)ethyl)phenol]", "values": [{"measurement": "Ki", "setting": "human recombinant A1AR", "value": 0.411, "unit": "µM"}, {"measurement": "Ki", "setting": "human recombinant A2AAR", "value": 0.044, "unit": "µM"}, {"measurement": "Ki", "setting": "A2BAR", "value": 0.393, "unit": "µM"}, {"measurement": "Ki", "setting": "human recombinant A3AR", "value": 3.81, "unit": "µM"}]}, {"smiles": "CCn1c(O)nc2c(N)nc(NCCc3ccc(OC)cc3)nc21", "note": "[compound 10]", "values": [{"measurement": "Ki", "setting": "human recombinant A1AR", "value": 1.39, "unit": "µM"}, {"measurement": "Ki", "setting": "human recombinant A2AAR", "value": "> 30", "unit": "µM"}, {"measurement": "Ki", "setting": "A2BAR", "value": "> 30", "unit": "µM"}, {"measurement": "Ki", "setting": "human recombinant A3AR", "value": 0.777, "unit": "µM"}]}, {"smiles": "CCn1c(O)nc2c(N)nc(NCCc3ccc(O)cc3)nc21", "note": "[compound 11]", "values": [{"measurement": "Ki", "setting": "human recombinant A1AR", "value": 7.05, "unit": "µM"}, {"measurement": "Ki", "setting": "human recombinant A2AAR", "value": "> 30", "unit": "µM"}, {"measurement": "Ki", "setting": "A2BAR", "value": "> 30", "unit": "µM"}, {"measurement": "Ki", "setting": "human recombinant A3AR", "value": "> 30", "unit": "µM"}]}, {"smiles": "CCn1c(-c2ccco2)nc2c(N)nc(NCCc3ccc(OC)cc3)nc21", "note": "[compound 12, 9-ethyl-8-(furan-2-yl)-N^2-(4-methoxyphenethyl)-9H-purine-2,6-diamine]", "values": [{"measurement": "Ki", "setting": "human recombinant A1AR", "value": 0.0026, "unit": "µM"}, {"measurement": "Ki", "setting": "human recombinant A2AAR", "value": 0.001, "unit": "µM"}, {"measurement": "Ki", "setting": "A2BAR", "value": "> 30", "unit": "µM"}, {"measurement": "Ki", "setting": "human recombinant A3AR", "value": 0.016, "unit": "µM"}]}, {"smiles": "CSc1nc(N)n2nc(S(C)(=O)=O)nc2n1", "note": "[compound 17, 2-(Methylsulfonyl)-5-(methylthio)-[1,2,4]triazolo [1,5-a][1,3,5]triazin-7-amine]", "values": [{"measurement": "Ki", "setting": "human recombinant A1AR", "value": 5.72, "unit": "µM"}, {"measurement": "Ki", "setting": "human recombinant A2AAR", "value": 3.24, "unit": "µM"}, {"measurement": "Ki", "setting": "human recombinant A3AR", "value": 14.7, "unit": "µM"}]}, {"smiles": "CCOc1nc2nc(SC)nc(N)n2n1", "note": "[compound 18, 2-Ethoxy-5-(methylthio)-[1,2,4]triazolo[1,5-a][1,3,5]triazin-7-amine]", "values": [{"measurement": "Ki", "setting": "human recombinant A1AR", "value": 4.57, "unit": "µM"}, {"measurement": "Ki", "setting": "human recombinant A2AAR", "value": 0.583, "unit": "µM"}, {"measurement": "Ki", "setting": "human recombinant A3AR", "value": 9.72, "unit": "µM"}, {"measurement": "melting point", "value": "220 °C (dec.)"}]}, {"smiles": "CCOc1nc(N)n2nc(OCC)nc2n1", "note": "[compound 19, 2,5-diethoxy-[1,2,4]triazolo[1,5-a][1,3,5]triazin-7-amine]", "values": [{"measurement": "Ki", "setting": "human recombinant A1AR", "value": 6.36, "unit": "µM"}, {"measurement": "Ki", "setting": "human recombinant A2AAR", "value": 1.06, "unit": "µM"}, {"measurement": "Ki", "setting": "human recombinant A3AR", "value": 4.79, "unit": "µM"}]}]}
